Laboratory results as given in the CheMixHub viscosity set.

Test: xn = mol fraction of the nth substance listed

COc1ccccc1N + CC(=O)O
viscosity [mPa·s], 100 kPa
Conditions	x1 = 0.1011	x1 = 0.1745	x1 = 0.2562	x1 = 0.3454	x1 = 0.4852	x1 = 0.5894	x1 = 0.6674	x1 = 0.7458	x1 = 0.8979
303.15 K	1.442	1.732	2.053	2.402	2.947	3.351	3.652	3.953	4.535
308.15 K	1.349	1.618	1.916	2.24	2.745	3.118	3.397	3.676	4.214
313.15 K	1.257	1.505	1.78	2.078	2.541	2.885	3.141	3.397	3.891
318.15 K	1.166	1.394	1.646	1.92	2.346	2.662	2.897	3.132	3.584

OCCNCCO + C[N+](C)(C)CCO.[Cl-]
viscosity [mPa·s], 101 kPa
Conditions	x2 = 0.091	x2 = 0.111	x2 = 0.143
293.15 K	611.4	565.3	567
313.15 K	151.4	150.4	149.2

COc1ccccc1N + CCCCOCCO
303.15 K, 101 kPa
Conditions	viscosity [mPa·s]
x1 = 0.115	3.21
x1 = 0.2262	3.538
x1 = 0.3338	3.847
x1 = 0.438	4.116
x1 = 0.539	4.334
x1 = 0.6369	4.494
x1 = 0.7318	4.629
x1 = 0.8238	4.741
x1 = 0.9132	4.839

CCC(C)=O + CCCCCC
298 K, 101.33 kPa
Conditions	viscosity [mPa·s]
x1 = 0.055	0.3018
x1 = 0.2337	0.3032
x1 = 0.2985	0.3054
x1 = 0.4168	0.3122
x1 = 0.5063	0.3211
x1 = 0.6043	0.3277
x1 = 0.6943	0.3371
x1 = 0.8004	0.3496
x1 = 0.9053	0.3647

COc1ccccc1N + CCC(=O)CC
viscosity [mPa·s], 100 kPa
Conditions	x1 = 0.0991	x1 = 0.1998	x1 = 0.2865	x1 = 0.3698	x1 = 0.4502	x1 = 0.5469	x1 = 0.6601	x1 = 0.7965	x1 = 0.8805
303.15 K	0.905	1.383	1.793	2.178	2.544	2.98	3.48	4.069	4.425
308.15 K	0.85	1.3	1.681	2.038	2.379	2.784	3.249	3.796	4.123
313.15 K	0.795	1.217	1.569	1.897	2.213	2.586	3.016	3.52	3.819

OCCNCCO + OCCO
298 K, 101.3 kPa
Conditions	viscosity [mPa·s]
x1 = 0.0049	17.27
x1 = 0.01	17.72
x1 = 0.044	20.95
x1 = 0.07152	25.16
x1 = 0.09514	28.03
x1 = 0.1331	37.15

CCCCCCOC(C)=O + CCCCCO
viscosity [mPa·s], 101.33 kPa
Conditions	x1 = 0.1057	x1 = 0.2038	x1 = 0.3074	x1 = 0.4005	x1 = 0.5019	x1 = 0.6009	x1 = 0.7083	x1 = 0.8029	x1 = 0.9041
293.15 K	3.347	2.798	2.346	2.028	1.755	1.548	1.373	1.253	1.153
303.15 K	2.392	2.002	1.682	1.456	1.262	1.115	0.991	0.906	0.835
313.15 K	1.889	1.594	1.352	1.181	1.035	0.924	0.83	0.766	0.712

COCCOC + O=[N+]([O-])c1ccccc1
298.15 K, 101 kPa
Conditions	viscosity [mPa·s]
x1 = 0.1318	1.472
x1 = 0.2546	1.27
x1 = 0.3693	1.087
x1 = 0.4766	0.929
x1 = 0.5774	0.793
x1 = 0.672	0.688
x1 = 0.7612	0.599
x1 = 0.8453	0.523
x1 = 0.9248	0.462

COc1ccccc1N + ClCCCl
viscosity [mPa·s], 100 kPa
Conditions	x1 = 0.0875	x1 = 0.1658	x1 = 0.2536	x1 = 0.3656	x1 = 0.4856	x1 = 0.5902	x1 = 0.6816	x1 = 0.7704	x1 = 0.8841
303.15 K	1.101	1.438	1.814	2.291	2.797	3.235	3.613	3.98	4.448
308.15 K	1.037	1.353	1.704	2.148	2.617	3.022	3.372	3.711	4.139
313.15 K	0.974	1.27	1.596	2.004	2.436	2.808	3.13	3.439	3.829

COCCOC + Cc1ccccc1
298.15 K, 101 kPa
Conditions	viscosity [mPa·s]
x1 = 0.102	0.535
x1 = 0.2036	0.509
x1 = 0.3047	0.486
x1 = 0.4053	0.462
x1 = 0.5055	0.444
x1 = 0.6053	0.434
x1 = 0.7046	0.429
x1 = 0.8035	0.425
x1 = 0.902	0.419

CCC(C)=O + CCCCCCO
viscosity [mPa·s], 100 kPa
Conditions	x1 = 0.0791	x1 = 0.1639	x1 = 0.2389	x1 = 0.3481	x1 = 0.4401	x1 = 0.5609	x1 = 0.6516	x1 = 0.7391	x1 = 0.8511	x1 = 0.9382
293.15 K	3.8	2.9	2.29	1.69	1.3	0.93	0.75	0.57	0.41	0.4
303.15 K	2.95	2.28	1.87	1.42	1.09	0.81	0.7	0.58	0.47	0.41
313.15 K	2.28	1.8	1.49	1.15	0.92	0.72	0.6	0.51	0.42	0.37
323.15 K	1.8	1.46	1.21	0.96	0.79	0.62	0.52	0.45	0.37	0.34
